Source: article doi:10.1101/2025.07.28.667221, “Pentilludin reduces rat amphetamine and remifentail self-administration with good pharmacologic and toxicologic profiles” (bioRxiv, 2025)
“Also recorded” adds a separate entry of the source. Read-outs that look alike come from different tables or passages of the source.

How the values were obtained:
mice [1] = test system: mice; parameters: method as in PMID 30348770; details: cited from earlier work
mice [2] = test system: mice; parameters: method as in PMID 30348770; details: cited from earlier work; remark: listed apart in the source
mice [3] = details: cited from earlier work
Ames test = assay: Ames test; type: cell-based; details: in vitro
micronucleus test = assay: micronucleus test; type: cell-based; details: in vitro
hERG channels = hERG channels (Homo sapiens, UniProt Q12809); assay: hERG channel activity; details: in vitro
[4] = Solubility in dosing vehicles; type: physicochemical; details: read-out: soluble at concentrations up to
Procedure: Pentilludin powder was >97.5% pure following synthesis and when reanalyzed (Certificate of Analysis, GLP) 1 ½ and 2 ½ years after synthesis. Pentilludin was soluble in 6.82% Captisol in 60:40 PEG600/water (the vehicle used for initial toxicology experiments) and in PEG600 (the vehicle used for self-administration and Good Laboratory Practices testing) at concentrations up to 100 mg/ml with gentle heating.

[5] = Plasma pentilludin levels after acute 20 mg/kg iv or po administration; type: in vivo; details: rat
Procedure: Proteins in 50 μL plasma collected with K2EDTA as anti-coagulant were precipitated by adding 5 μL of acetonitrile with 0.5% v/v ascorbate, 200 μL of acetonitrile containing 20 ng/ml tolbutamide internal standard with 0.5% ascorbate was added, the mixture was vortexed for 1 min, centrifuged @ 4000 rpm for 15 mins and peaks in 8 μL of the supernatant were identified using an AB Sciex Triple Quad 5500 LC-MS/MS (electrospray, negative ions, Analyst 1.6.3 software) and a Waters Acquity Ultra Performance LC System with 50 × 2.1 mm Acuity UPLC Beh C18 1.7 μm column eluted for 2.5 min @ 22°C @ 0.5 ml/min with Mobile Phase A (5mM NH4OAc in water with 0.05% formic acid) and mobile phase B (acetonitrile with 0.1% formic acid) with changes in % A as follows: 60, 10, 5, and 60. Standards were quantitated at concentrations ranging from 1– 2000 ng/mL.

[6] = test system: rats trained to self-administer amphetamine iv; assay: Amphetamine self-administration; type: in vivo; details: rat
Procedure: (§1) Young adult Sprague-Dawley rats (Charles River Laboratories, Raleigh, NC, USA) were singly housed on a reverse 12:12 day night cycle and tested during their active (dark) phase in studies approved by the Duke Institutional Animal Care and Use Committee. Rats had catheters surgically implanted in their jugular veins to provide access for self-administration by IV infusion. Briefly, rats were anesthetized with i.p. injections of ketamine (Fort Dodge Animal Health, Fort Dodge, IA, USA; […]) with the addition of Dexdomitor (Pfizer, New York, NY, USA; 0.15 mg/kg) which is a sedative and analgesic agent. Before surgery, ketoprofen (5 mg/kg, s.c.) was administered to reduce post-operative pain and inflammation. A plastic SoloPort was attached intraoperatively to a polyurethane catheter and inserted into a subcutaneous interscapular pocket and sutured to underlying fascia.
(§2) The day following surgery, the rats began self-administration sessions with amphetamine (0.1 mg/kg/infusion, iv) or remifentanil (0.3 μg/kg/infusion, iv) as reinforcers. […] Each infusion was followed by a 20-sec timeout in which the house light goes on and cue light goes out. Responses were recorded but not reinforced during this interval. […] There were five sessions of training for self-administration before the onset of pentilludin drug treatment sessions. All of the animals had the same number of training sessions to provide all with equal testing history. Each infusion session lasted for one hour. Animals were tested not more than once/day between 9 AM and 4 PM.
(§3) At the end of each study catheter patency was confirmed by assessing sedation following methohexital (brevital) administration through the catheter. […] Self-administration results, differences from baseline levels, were assessed for statistical for significance with analysis of variance. To control for baseline differences in self-administration, the self-administration with pentilludin or vehicle treatment was analyzed as a difference from each animal’s self-administration on the last two sessions of baseline training. […]

[7] = test system: rats trained to self-administer remifentanil iv; assay: Remifentanil self-administration; type: in vivo; details: rat
Procedure: as §1, §2, §3

rats = assay: Lever pressing for self-administration of food pellets; type: in vivo; details: rat, eight sessions of testing
dogs = assay: Two week oral dosing in dogs, kidney pathology; type: in vivo, dog; details: 15 mg/kg/d po for two weeks
[8] = Metabolism in rat liver microsomes; type: in vitro ADME
[9] = Metabolism in human liver microsomes; type: in vitro ADME
Metabolism in rat plasma = type: in vitro ADME
[10] = Metabolism in human plasma; type: in vitro ADME
recombinant paraoxonase = assay: Interaction with recombinant paraoxonase; type: in vitro ADME; details: initial work
[11] = target: receptor type protein tyrosine phosphatase D (PTPRD); parameters: method as in PMID 34863978; details: likely irreversible; read-out: potency in inhibiting PTPRD's phosphatase; cited from earlier work
[12] = test system: receptor type protein tyrosine phosphatase S (PTPRS); parameters: method as in PMID 35636503; details: cited from earlier work
[13] = test system: receptor type protein tyrosine phosphatase F (PTPRF); parameters: method as in PMID 35636503; details: cited from earlier work
[14] = test system: receptor type protein tyrosine phosphatase J (PTPRJ); parameters: method as in PMID 35636503; details: cited from earlier work
[15] = test system: nonreceptor type protein tyrosine phosphatase 1 (PTPN1/ PTP1B); parameters: method as in PMID 35636503; details: cited from earlier work
[16] = test system: targets of the NIDA-EUROFINS assays (virtually all targets of currently marketed drugs); parameters: method as in PMID 34863978; details: cited from earlier work
[17] = Repeated two week daily oral administration toxicity (observational battery, weight, chemistry, hematology, histopathology); details: rat
[18] = 20 mg/kg sc prior to every other session, 20 mg/kg

Sequence of hERG channels (Q12809 whole entry): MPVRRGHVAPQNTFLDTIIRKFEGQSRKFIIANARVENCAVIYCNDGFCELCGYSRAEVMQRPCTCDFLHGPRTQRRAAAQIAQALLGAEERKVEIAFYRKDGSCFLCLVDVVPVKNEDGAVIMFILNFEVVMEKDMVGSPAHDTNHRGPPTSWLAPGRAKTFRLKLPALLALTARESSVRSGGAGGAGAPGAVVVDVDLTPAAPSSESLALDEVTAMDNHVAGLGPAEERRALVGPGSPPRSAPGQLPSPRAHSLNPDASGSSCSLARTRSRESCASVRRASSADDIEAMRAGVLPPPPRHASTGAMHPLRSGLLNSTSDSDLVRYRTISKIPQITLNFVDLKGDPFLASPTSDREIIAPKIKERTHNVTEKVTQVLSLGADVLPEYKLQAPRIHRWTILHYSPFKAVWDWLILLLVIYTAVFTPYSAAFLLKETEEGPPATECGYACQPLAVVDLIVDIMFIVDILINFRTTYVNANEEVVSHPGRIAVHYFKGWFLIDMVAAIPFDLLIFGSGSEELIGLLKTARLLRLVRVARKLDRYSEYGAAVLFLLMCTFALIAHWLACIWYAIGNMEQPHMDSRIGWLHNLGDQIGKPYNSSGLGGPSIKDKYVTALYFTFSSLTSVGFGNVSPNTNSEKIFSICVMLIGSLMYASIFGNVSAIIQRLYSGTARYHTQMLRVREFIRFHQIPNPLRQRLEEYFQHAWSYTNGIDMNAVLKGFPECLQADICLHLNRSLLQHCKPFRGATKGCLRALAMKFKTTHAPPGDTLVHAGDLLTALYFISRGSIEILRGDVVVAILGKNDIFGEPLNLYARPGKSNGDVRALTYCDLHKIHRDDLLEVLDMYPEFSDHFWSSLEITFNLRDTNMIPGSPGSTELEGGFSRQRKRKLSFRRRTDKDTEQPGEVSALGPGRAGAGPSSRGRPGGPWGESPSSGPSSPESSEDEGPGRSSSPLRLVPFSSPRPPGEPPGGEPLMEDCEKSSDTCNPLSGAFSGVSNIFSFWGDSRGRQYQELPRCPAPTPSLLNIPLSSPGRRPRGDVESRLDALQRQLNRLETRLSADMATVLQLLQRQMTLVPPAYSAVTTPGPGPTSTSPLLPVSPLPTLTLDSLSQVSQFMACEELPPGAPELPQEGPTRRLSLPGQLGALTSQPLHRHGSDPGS

For `CCCCOc1cc2c(c(C=O)c1OC)CC(O)OC2=O` (stereo not drawn) [7-BIA], the “stimulant reward, cocaine conditioned place preference” value (mice [1]) is given as “reduces stimulant reward”, the “stimulant reward, cocaine self-administration” value (mice [2]) is given as “reduces stimulant reward” and the “toxicity on weeks-long repeated treatments” value (mice [3]) is given as “little evidence for toxicity”.
With `COc1c(OCC2CCCC2)cc2c(c1C=O)CC(O)OC2=O` (stereo not drawn) [Pentilludin] the “activity in Ames test” value (Ames test) was “no in vitro activities”, the “activity in micronucleus test” value (micronucleus test) was “no in vitro activities” and the “activity at hERG channels” value (hERG channels) was “no in vitro activities”. The solubility ([4]; 6.82% Captisol in 60:40 PEG600/water (dosing vehicle), 6.82% Captisol in 60:40 PEG600/water, gentle heating) was ≤ 100 mg/mL, the solubility ([4]; PEG600 (dosing vehicle), PEG600, gentle heating) was ≤ 100 mg/mL and the bioavailability ([5]; plasma, po, 20 mg/kg, data from 0.5 to 4h, read-out: bioavailability for po pentilludin in PEG600) was 15%. For the same compound, the concentration at 0.08 h ([5]; plasma, IV 20.0 mg/kg, 0.08 h) was 62200 ng/mL, the concentration at 0.5 h ([5]; plasma, IV 20.0 mg/kg, 0.50 h) was 2920 ng/mL and the concentration at 4 h ([5]; plasma, IV 20.0 mg/kg, 4.0 h) was 4.98 ng/mL. The concentration at 0.5 h ([5]; plasma, PO 20.0 mg/kg in PEG600, 0.50 h) was 449 ng/mL, the concentration at 2 h ([5]; plasma, PO 20.0 mg/kg in PEG600, 2.0 h) was 146 ng/mL and the concentration at 4 h ([5]; plasma, PO 20.0 mg/kg in PEG600, 4.0 h) was 17.1 ng/mL. The “terminal half-life of plasma pentilludin” value ([5]; 20 mg/kg) was “between one and two”, the “signs of gross toxicity” value ([5]; acute 20 mg/kg) was “no signs of gross toxicity” and the “reduction of amphetamine self-administration overall relative to controls” value ([6]; 20 mg/kg sc prior to every other session, 12 sessions) was 6.2 infusions per session. For the same compound, the “effect on amphetamine self-administration” value [6, 18] was “substantially reduces; also recorded: robustly reduced”, the “decrease of amphetamine self-administration from last acquisition sessions” value ([6]; 20 mg/kg sc, last two of 12 sessions) was 23% and the “effect on remifentanil self-administration” value [7, 18] was “more modestly reduces; also recorded: significantly attenuated the increase”. The “smaller increase in remifentanil self-administration relative to vehicle-treated controls” value ([7]; 20 mg/kg sc, 11th and 12th sessions) was 26.5%, the “responding on the control lever” value ([7]; remifentanil self-administration) was “did not differ” and the “food pellets per one-hour session” value (rats) was 85.6 ± 6.3 food pellets. The kidney pathology (dogs) was “fail to display any kidney pathology”, the metabolism [8] was “only modest metabolism” and the metabolism [9] was “only modest metabolism”. The metabolism (Metabolism in rat plasma) was “robust metabolism”, the metabolism [10] was “robust metabolism” and the “interaction with recombinant paraoxonase” value (recombinant paraoxonase) was “interacts avidly”. For the same compound, the IC50 [11] was 690 nM, the “potency at PTPRS” value [12] was “some potency” and the “potency at PTPRF” value [13] was “some potency”. The “potency at PTPRJ” value [14] was “less potency”, the “potency at PTPN1/ PTP1B” value [15] was “less potency” and the IC50 [16] was ≥ 100000 nM. The “activity at targets for currently-licensed drugs” value ([16]; in vitro) was “no in vitro activities”, the “oral intake and weight” value (mice [3]; daily ≥ 150 mg/kg po) was “reduce oral intake and lose weight starting on about the 4th day” and the “toxicity on weeks-long repeated treatments” value (mice [3]; pentilludin doses up to 100 mg/kg/d po) was “little evidence for toxicity”. For the same compound, the weight loss (mice [3]; repeated doses of 100 mg/kg/day) was “no weight loss”, the “serum chemistry abnormalities in measures relating to renal function” value ([17]; 150 mg/kg/d) was “no serum chemistry abnormalities” and the proteinuria ([17]; 150 mg/kg/d po two weeks, 150 mg/kg/day) was “proteinuria in rats treated with 150 mg/kg/d that recovered within two weeks of the end of pentilludin administration; also recorded: modest and reversible proteinuria”. The “effects on the observational battery, weight, plasma chemistries or hematological assessments” value ([17]; 50 or 75 mg/kg po daily in PEG600, two weeks) was “no significant effects”, the kidney histopathology ([17]; daily doses for two weeks, also found with vehicle) was “basophilic lesions in the kidneys of a number of the rats” and the “alterations in serum chemistries related to renal function” value ([17]; doses up to 100 mg/kg/d) was “None of the rats treated with doses up to 100 mg/kg/d displayed alterations”. For the same compound, the “behavioral, hematologic or serum chemistry abnormalities” value ([17]; doses up to 100 mg/kg/day for two weeks) was “have not been found to display behavioral, hematologic or serum chemistry abnormalities”, the effects on histopathology ([17]; good laboratory practices toxicology study, 50 or 75 mg/kg/d po two weeks) was “no pentilludin-associated effects detected” and the “effect on plasma chemistry, hematology and behavioral observation batteries” value ([17]; good laboratory practices work) was “lack of effect”.
